Experimental data as given in US20230065522A1 (Memorial Sloan Kettering Cancer Center, priority 2015, published 2023).
Blank lines part the entries; values can stand above or below the compound they belong to.

How the values were obtained:
[1] = test system: tumor cells; test: in vivo confocal imaging of PARPi-fl in tumor cells (cell population drug kinetics)
Text: Concentration rapidly increases after a bolus dose followed by a slow decay (top).

[2] = clearance from circulation and metabolic stability after IV injection; format: in vivo, mice
[3] = target: T1, PARP1 (Homo sapiens, UniProt P09874); test: correlation of PARPi-fl fluorescence with PARP1 antibody staining in FaDu tumor sections; format: in vivo; settings: nuclear area, 222 pairs
T1 construct: endogenous in cells; host or cells: FaDu (human hypopharyngeal SCC, ATCC) subcutaneous xenografts in athymic nude mice
Procedure: 222 xy pairs pooled from n=3 tumor sections.
Next, 10 μm cryosections were fixed in 4% paraformaldehyde for 8 minutes, followed by blocking with 3% (v/v) goat serum (Sigma-Aldrich, St. Louis, Mo.) in PBS. Antibodies were diluted in 1% (w/v) BSA and 0.3% (v/v) Triton X-100 in PBS. Anti-PARP1 primary antibody (sc-7150, Santa Cruz Biotechnology, Santa Cruz, Calif.) was incubated overnight at 4° C. (1 μg/ml), followed by three 10-minute washes with PBS and incubation with secondary AlexaFluor® 680 goat anti-rabbit antibody (A21076, Molecular Probes, Eugene, Oreg.) for 1 hour at 4° C. (2 μg/ml). After another 5-minute PBS wash, sections were mounted with Mowiol® (Sigma-Aldrich, St. Louis, Mo.) containing Hoechst 33342 DNA Stain (Sigma-Aldrich, St. Louis, Mo.). […] Incubating sections with either a nonspecific rabbit IgG or PBS instead of primary antibody confirmed binding specificity.

[4] = test system: FaDu tumors; test: fluorescence endomicroscopy of excised FaDu tumors and control tissues; format: in vivo, mice; settings: 90 minutes after PARPi-fl injection
Procedure: FaDu xenografts were imaged with a fluorescence endoscope that is available for both clinical and preclinical imaging (Cellvizio, Mauna Kea Technologies, Paris, France). It provides cellular to subcellular resolution and has a flexible confocal microprobe that enables versatile imaging. […] The microprobe was slowly moved over the tumor, tongue, or muscle, while a real-time video was recorded using a 488 nm excitation beam. The videos were converted to grayscale and the intensity was measured in 10 frames per video using ImageJ 1.49e Software. Topical application of PARPi-fl

[5] = test system: orthotopic tongue tumors (FaDutdTomato); test: topical application of PARPi-fl on orthotopic tongue tumors, confocal microscopy; format: in vivo, mice; settings: one minute application
Procedure: For topical application, the tongues were dipped into a well of a 96-well plate filled with the respective incubation solution. […] This was followed by cleaning of the tongue with an alcohol pad to remove residual unbound compound. The animals were imaged in the IVIS Spectrum before and after PARPi-fl application using the appropriate filter sets for detection of PARPi-fl and the tdTomato fluorescent protein. Spectral unmixing was used to separate the signals for tdTomato, PARPi-fl and autofluorescence. The tdTomato fluorescent protein allows in vivo localization of the tumor. For comparability, all images were scaled to the same maximum radiant efficiency. Imaging was repeated with sections of the excised tongues after cryofixation. […] Adjacent sections were H&E stained for morphological evaluation.

[6] = test system: U87 cells; test: MTT assay; format: cell-based; settings: U87 glioblastoma cells
[7] = test system: U251 cells; test: MTT assay; format: cell-based; settings: U251 glioblastoma cells
[8] = toxicity after local administration on the oral mucosa; format: in vivo; settings: mice
Procedure: […]. Mice received blood draws after 24 h and 48 h post administration, and were then sacrificed to receive a full necropsy.

[9] = test system: Ca127 cells; test: flow cytometry of PARPi-fl uptake with and without irradiation; format: cell-based, human
Procedure: (§1) First, cells were irradiated with 0, 2, 4 and 10 Gy in 25 cm^2 culture flasks using the J.L. Shepherd Cesium irradiator (J.L. Shepherd, San Fernando, Calif.) at a dose rate of 174 cGy/min. […] Following a wash with PBS, cells were trypsinized, counted, and portions of 0.5×10^6 cells of the single cell suspension were aliquoted into 1.5 ml Eppendorf tubes (Eppendorf, Hamburg, Germany). For each time point and irradiation dose, samples were either left unstained, were stained with PARPi-fl or olaparib/PARPi-fl. […] For staining, cells were washed with 1 ml FACS buffer (1% BSA (w/v) in PBS). […] Next, cells were centrifuged, the supernatant was aspirated and cells were re-suspended in 0.5 ml FACS buffer and transferred to 5 ml round bottom flow cytometry tubes (BD Biosciences, Bedford, Mass.) through a 40 μm strainer to remove doublets and left on ice until measurement in the flow cytometer (LSR® II, BD Biosciences, Bedford, Mass.). For each measurement, 10,000 events were counted. Raw data were processed in FlowJo software in order to calculate the changes in PARPi-fl uptake after irradiation. Cell clumps and debris were eliminated using the corresponding gates (forward and side scatter) for the unstained cell population. The gates were applied to all stained samples. PARPi-fl fluorescence was imaged in the FITC channel against side scatter (area).

[10] = test system: FaDu cells; test: as above; format: cell-based, human
Procedure: as §1

[11] = tissue permeability
[12] = pharmacokinetic profile of ^18F-PARPi in a tumor-free mouse; format: in vivo
Procedure: Bone uptake amounts for 6% ID/g. While low, imaging in larger mammals typically reduces bone-uptake further due to slower metabolic degradation.
The blood half-life, serum stability, and metabolic stability of ^18F-PARPi was determined. Blood half-lives were determined after the injection of ˜15 μCi of the ^18F-labeled species into C57BL/6J (B6) mice and blood (5-10 μL) drawn at different time points via saphenous vein bleeds. FIGS. 13A-13B show an image acquired at 60 minutes. The drawn blood was both counted as well as analyzed using a HPLC-MS equipped with both a fluorescence detector as well as a parallel radiodetector. Organs were homogenized. Next, the bimodal imaging agent was extracted and radioactive/fluorescent metabolites were analyzed using HPLC. All major organs were weighed, and their […] activity was measured using a scintillation counter. The injected dose per gram tissue (% ID/g) was determined.

[13] = cited from earlier work
[14] = test system: subcutaneous FaDu tumors; test: ex vivo epifluorescence imaging of PARPi-fl uptake, subcutaneous FaDu xenografts and normal tissues
Procedure: Animals were sacrificed 90 minutes post-injection and tumors, tongues, trachea, and muscle were excised and imaged using epifluorescence imaging (IVIS Spectrum, PerkinElmer, Waltham, Mass.). […] This measure carries the unit [p/s/cm^2/sr]/[μW/cm^2] and is defined as the number of photons per second leaving a square centimeter of tissue and radiating into a solid angle of one steradian (sr).

[15] = oral mucosa, 20 μl of 400 μM solution
[16] = topical oral mucosa, 29 nmol in 50 μL, 10 min
[17] = 48 hours after 10 Gy irradiation
[18] = non-irradiated, olaparib co-incubated with PARPi-fl (50-fold excess)

T1 sequence (P09874 whole entry, species assumed): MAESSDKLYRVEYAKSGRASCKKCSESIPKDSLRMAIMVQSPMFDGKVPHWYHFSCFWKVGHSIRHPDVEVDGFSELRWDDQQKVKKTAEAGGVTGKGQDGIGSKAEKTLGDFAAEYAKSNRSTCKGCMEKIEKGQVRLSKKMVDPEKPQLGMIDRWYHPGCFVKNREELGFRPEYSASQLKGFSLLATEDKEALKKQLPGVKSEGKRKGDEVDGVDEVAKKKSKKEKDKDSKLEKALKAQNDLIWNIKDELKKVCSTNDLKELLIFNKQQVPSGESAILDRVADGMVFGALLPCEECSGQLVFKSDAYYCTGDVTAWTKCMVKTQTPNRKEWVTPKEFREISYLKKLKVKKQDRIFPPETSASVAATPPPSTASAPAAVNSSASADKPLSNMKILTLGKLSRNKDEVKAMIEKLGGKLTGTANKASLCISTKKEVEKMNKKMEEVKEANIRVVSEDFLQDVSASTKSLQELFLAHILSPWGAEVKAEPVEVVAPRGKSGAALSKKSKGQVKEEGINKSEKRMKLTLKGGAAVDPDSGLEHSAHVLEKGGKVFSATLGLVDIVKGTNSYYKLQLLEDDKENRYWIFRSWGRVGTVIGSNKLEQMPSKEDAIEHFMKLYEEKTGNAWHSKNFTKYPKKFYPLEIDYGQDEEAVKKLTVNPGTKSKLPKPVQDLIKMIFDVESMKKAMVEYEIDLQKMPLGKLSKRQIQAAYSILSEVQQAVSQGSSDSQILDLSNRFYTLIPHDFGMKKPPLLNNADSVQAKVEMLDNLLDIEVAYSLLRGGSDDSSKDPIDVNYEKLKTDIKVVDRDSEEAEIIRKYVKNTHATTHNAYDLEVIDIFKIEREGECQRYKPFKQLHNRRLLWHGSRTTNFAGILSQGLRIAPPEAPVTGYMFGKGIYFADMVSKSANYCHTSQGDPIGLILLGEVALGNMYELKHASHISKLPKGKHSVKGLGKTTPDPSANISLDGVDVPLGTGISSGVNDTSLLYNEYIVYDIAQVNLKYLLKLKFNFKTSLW

SMILES: Cc1cc(C)n2c1C=C1C=CC(CCC(=O)N3CCN(C(=O)c4cc(Cc5n[nH]c(=O)c6ccccc56)ccc4F)CC3)=[N+]1[B-]2(F)F [PARPi-fl]
average cellular drug concentration ([1]; tumor cells in vivo after bolus dose, FIG. 9B): 1.2 µM
cells targeted within tumor tissue ([1]; uptake within tumor tissue): greater than 99.8%
concentration in targeted tumor cells ([1]; uptake within tumor tissue): 1900 ± 500 nM
metabolites ([2]; mice, 30 min post injection): less than 50%
β half-life ([2]; mice, IV injection, clearance from circulation): 1.47 h
time of peak uptake in subcutaneous tumors ([2]; post injection): 30 min
co-localization with PARP1 antibody staining, Rcoloc. [3]: 0.986
average signal intensity ([4]; FaDu tumors): 35.4±8.6 AU
average signal intensity ([4]; thigh muscle): 15.1±2.4 AU
average signal intensity ([4]; tongue): 18.5±6.9 AU
penetration depth into tumor tissue [5]: up to 300 μm
IC50 [6]: 24 µM
IC50 [7]: 5.5 µM
changes in clinical chemical and hematologic parameters [8, 15]: no changes
local irritation [8, 15]: no local irritation
ALP [8, 16]: 90 ± 18 IU/L
ALT (SGPT) [8, 16]: 31 ± 6 IU/L
AST (SGOT) [8, 16]: 67 ± 4 IU/L
Albumin [8, 16]: 2.7 ± 0.2 g/dL
BA % [8, 16]: 0.2 ± 0.3%
BASOPHILS [8, 16]: 0.01 ± 0.02 K/μL
BUN [8, 16]: 28 ± 2 mg/dL
Calcium [8, 16]: 9.6 ± 0.2 mg/dL
Chloride [8, 16]: 114 ± 1 mEq/L
Cholesterol [8, 16]: 86 ± 8 mg/dL
Creatinine [8, 16]: 0.24 ± 0.01 mg/dL
EO % [8, 16]: 5.5 ± 1.0%
EOSINOPHIL [8, 16]: 0.64 ± 0.55 K/μL
GGT [8, 16]: 0 IU/L
Globulin [8, 16]: 2.3 ± 0.7 g/dL
Glucose [8, 16]: 229 ± 54 mg/dL
HB [8, 16]: 15.1 ± 0.9 g/dL
HCT [8, 16]: 50.4 ± 2.9%
LY % [8, 16]: 57.0 ± 10.9%
LYMPHOCYT [8, 16]: 3.34 ± 1.07 K/μL
MCH [8, 16]: 14.7 ± 0.4 pg
MCHC [8, 16]: 30.0 ± 0.1 g/dL
MCV [8, 16]: 49.3 ± 1.2 fL
MO % [8, 16]: 1.9 ± 0.8%
MONOCYTE [8, 16]: 0.10 ± 0.04 K/μL
MPV [8, 16]: 6.1 ± 0.2 fL
NE % [8, 16]: 29.5 ± 4.0%
NEUTROPHI [8, 16]: 1.69 ± 0.04 K/μL
PLT [8, 16]: 1077 ± 171 K/μL
Phosphorus [8, 16]: 6 ± 1 mg/dL
Potassium [8, 16]: 3.8 ± 0.7 mEq/L
RBC [8, 16]: 10.24 ± 0.62 M/μL
RDW [8, 16]: 23.4 ± 0.6%
Sodium [8, 16]: 151 ± 3 mEq/L
Total Bilirubin [8, 16]: 0.1 ± 0.0 mg/dL
Total Protein [8, 16]: 4.9 ± 0.8 g/dL
WBC [8, 16]: 5.78 ± 0.90 K/μL
PARPi-fl signal compared to non-irradiated cells [9, 17]: 136.0±16.6%
PARPi-fl signal compared to non-irradiated cells [10, 17]: 145.4±7.3%
tissue permeability [11]: 4.7±2.5 μm/s

bone uptake [12]: 6 % ID/g
SMILES: CC1=CC(C)=[N+]2C1=Cc1ccc(CCC(=O)N3CCN(C(=O)c4cc(Cc5n[nH]c(=O)c6ccccc56)ccc4F)CC3)n1[B-]2(F)[18F] (stereo not shown) [^18F-PARPi]

SMILES: O=C(c1cc(Cc2n[nH]c(=O)c3ccccc23)ccc1F)N1CCN(C(=O)C2CC2)CC1 [olaparib, 4-[(3-[(4-cyclopropyl-carbonyl)piperazin-4-yl]carbonyl)-4-fluorophenyl]methyl (2H)phthalazin-1-one]
IC50 ([6]; Homo sapiens, U-87 MG): 28 µM
IC50 ([7]; Homo sapiens, U-251): 8 µM
effect on PARPi-fl uptake [9, 18]: almost completely suppressed
effect on PARPi-fl uptake [10, 18]: almost completely suppressed
excreted ([13]; ^14C-labeled olaparib, within 7 days): More than 86%
terminal half-life ([13]; after a 400 mg dose): 11.9 h
tolerability ([13]; approved dose and schedule, 400 mg orally twice daily): well tolerated
apparent volume of distribution ([13]; oral administration): more than 150 L
time of peak plasma concentrations after dosing ([13]; oral administration): 1 to 3 h
inhibition of PARPi-fl tumor uptake by xenografts ([14]; coinjection with PARPi-fl): almost completely inhibited
reduction of the fluorescent signal of the tumor ([14]; olaparib injected before PARPi-fl (50-fold excess, 30 min prior)): 60%
